One molecule from publication PMC10002220, “In Vivo Reversal of P-Glycoprotein-Mediated Drug Resistance in a Breast Cancer Xenograft and in Leukemia Models Using a Novel, Potent, and Nontoxic Epicatechin EC31” (International Journal of Molecular Sciences, 2023) can be followed below.

The subject of test [1] is K562/P-gp cells. In words: Drug resistance level: IC50 of anticancer drugs in K562/P-gp. The class given is cell-based, human. As for the experimental part:
(§1) In the Western blot membrane, the total P-gp and β-actin expression in each lane was quantified with ImageJ software. The relative P-gp expression was an intensity ratio of P-gp band relative to the β-actin band. The relative P-gp expression of the resistant cell line relative to its respective wild type was presented as a bar chart. The plasma membrane P-gp levels of LCC6MDR and K562/P-gp relative to their wild types were determined through flow cytometry using antihuman P-gp-PE antibodies. (B) LCC6MDR and LCC6. (C) K562/P-gp and K562. (D) the drug resistance levels of three P-gp-overexpressing cell lines and their wild types were studied. The 3 pairs of cell lines were incubated with anticancer drugs paclitaxel (PTX), doxorubicin (DOX), and vincristine (VCR) for 3 days, and the % of cell survival was then determined. Their IC50 (nM) values were calculated using Prism 5.0. RF (relative fold) was a ratio of IC50 of anticancer drugs in a P-gp-overexpressing cell line relative to its respective wild type. N = 3 independent experiments. […] All cell lines were counterstained with DAPI. (E) LCC6 and LCC6MDR, (F) P388 and P338ADR, and (G) K562 and K562/P-gp. Bar = 8 µm. / = not determined.

The subject of test [2] is LCC6MDR cells. In words: Drug resistance level: IC50 of anticancer drugs in LCC6MDR. The class given is cell-based, human. As for the experimental part: as §1
The subject of test [3] is LCC6 cells. In words: Drug resistance level: IC50 of anticancer drugs in LCC6. It counts as cell-based. The conditions noted are these: Homo sapiens, LCC-6, 72 h; 3 days incubation. As for the experimental part:
as §1

Test [4] has as its system K562 cells. In words: Drug resistance level: IC50 of anticancer drugs in K562. It counts as cell-based. The conditions noted are these: Homo sapiens, K562, 72 h; 3 days incubation. As for the experimental part:
as §1

For test [5], the system named is K562/P-gp leukemia. The experiment in a line: In vivo efficacy in reversing DOX resistance in human leukemia K562/P-gp model. On the set-up: species or system NOD/SCID mice. As for the experimental part: (§2) Irradiated BDF1 mice were i.p. inoculated with P388ADR cells, which caused mouse leukemia. Irradiated NOD/SCID mice were i.v. inoculated with K562/P-gp cells, which caused human leukemia. The mice were randomized and treated with (1) control treatment (no treatment), (2) DOX alone, and (3) EC31 + DOX. Treatments were given as indicated by the arrows. The number of mice deaths in each treatment group was recorded every day. (A) The percent survival of mice infected with P388ADR. (B) The percent survival of mice infected with K562/P-gp. The mice median survival days and the increased lifespan (ILS) were analyzed with Log-rank (Mantel–COX) test in Prism 5.0. Student’s paired t test was conducted as indicated. ** represents p < 0.01, and *** represents p < 0.001. N.S. = not significant.
The mice were randomly distributed into 3 groups: (1) control group (no treatment), (2) DOX (0.9 mg/kg i.v.) alone, and (3) cotreatment with EC31 (30 mg/kg i.p.) being injected 1 h prior to DOX (0.9 mg/kg i.v.) administration. EC31 and DOX were injected on days 7, 11, 19, 23, and 27. Before each treatment, 0.2 mg/mL of DOX was freshly prepared using PBS. Mice survival and body weight were monitored during the study period.

For test [6], the system named is P388 cells. In words: Drug resistance level: IC50 of anticancer drugs in P388. The class given is cell-based. The conditions noted are these: Mus musculus, P388, 72 h; 3 days incubation. As for the experimental part:
as §1

Test [7] concerns P388ADR cells. The experiment in a line: Drug resistance level: IC50 of anticancer drugs in P388ADR. It counts as cell-based, mouse. As for the experimental part: as §1
The test system of test [8] is P388ADR leukemia. In words: In vivo efficacy in reversing DOX resistance in murine leukemia P388ADR model. Also on record: species or system B6D2F1 mice. Particulars: DOX 3 mg/kg i.p. alone. As for the experimental part:
as §2
About 1 × 10^6 cells of P388ADR were i.p. inoculated in male B6D2F1 mice aged 5–7 weeks old. There were 3 groups: (1) control group with no treatment, (2) DOX (3 mg/kg i.p.) alone, and (3) cotreatment with EC31 (60 mg/kg i.p.) being injected 1 h prior to DOX (3 mg/kg i.p.) administration. In group 2, DOX was i.p. injected on days 2, 6, 10, 14, and 18 only. In group 3, EC31 was i.p. injected on days 1, 2, 5, 6, 9, 10, 13, 14, 17, and 18, and DOX was i.p. injected on days 2, 6, 10, 14, and 18. Before each treatment, 1.5 mg/mL of DOX was freshly prepared using PBS. Mice survival and body weight were monitored during the study period.

Consider `COc1cccc2c1C(=O)c1c(O)c3c(c(O)c1C2=O)C[C@@](O)(C(=O)CO)C[C@@H]3O[C@H]1C[C@H](N)[C@H](O)[C@H](C)O1` [DOX, doxorubicin], for which the IC50 in test [1] (Homo sapiens, K562, 72 h, 3 days incubation) stood at 1930 ± 126 nM; in test [2] (Homo sapiens, LCC6MDR, 72 h, 3 days incubation), 10300 nM; in test [3], 800 ± 100 nM; in test [4], 312 ± 41.6 nM; in test [6] it was 50 ± 1.8 nM; in test [7] (Mus musculus, P388/ADR, 72 h, 3 days incubation), 1790 ± 139 nM. For the same molecule, the “RF (relative fold)” value in test [1] (IC50 in K562/P-gp relative to K562) worked out at 6.2; in test [2] (IC50 in LCC6MDR relative to LCC6), 12.9; in test [7] (IC50 in P388ADR relative to P388), 35.8. Further, the median survival time in test [5] (DOX 0.9 mg/kg i.v. alone) is 32.0 days. For the same molecule, the “ILS% (increase in lifespan)” value in test [5] (DOX alone compared to untreated) is reported as 10.3%. Also, the median survival in test [8] is listed as 16.5 days.

The IC50 is the concentration at which inhibition is half-maximal. High values mean lower potency, low ones higher potency.
